These molecules were tested against T1, Angiotensin II receptor (Rattus norvegicus, UniProt P29089+P25095+P35351) (assay: Binding affinity against Angiotensin II receptor, from rat adrenal gland).
T1 sequence (P29089 whole entry): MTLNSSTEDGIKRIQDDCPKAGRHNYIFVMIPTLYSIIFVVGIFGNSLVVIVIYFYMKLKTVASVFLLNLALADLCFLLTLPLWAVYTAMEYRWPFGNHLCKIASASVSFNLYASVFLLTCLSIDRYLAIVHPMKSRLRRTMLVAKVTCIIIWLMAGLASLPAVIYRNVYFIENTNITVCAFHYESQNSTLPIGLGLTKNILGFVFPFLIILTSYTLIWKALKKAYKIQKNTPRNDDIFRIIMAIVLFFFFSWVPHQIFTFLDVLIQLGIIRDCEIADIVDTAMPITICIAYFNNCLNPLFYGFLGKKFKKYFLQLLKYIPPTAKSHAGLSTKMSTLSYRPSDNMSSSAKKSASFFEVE
T1 sequence (P25095 whole entry): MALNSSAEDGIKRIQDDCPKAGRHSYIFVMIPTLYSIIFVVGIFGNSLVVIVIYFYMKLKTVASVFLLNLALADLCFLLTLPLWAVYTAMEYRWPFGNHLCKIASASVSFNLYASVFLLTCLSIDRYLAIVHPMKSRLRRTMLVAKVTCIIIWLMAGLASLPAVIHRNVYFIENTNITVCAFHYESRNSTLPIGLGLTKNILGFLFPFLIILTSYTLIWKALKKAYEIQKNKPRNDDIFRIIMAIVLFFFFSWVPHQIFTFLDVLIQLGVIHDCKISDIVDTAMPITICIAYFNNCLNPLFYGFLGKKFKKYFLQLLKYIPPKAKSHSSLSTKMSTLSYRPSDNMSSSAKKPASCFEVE
T1 sequence (P35351 whole entry): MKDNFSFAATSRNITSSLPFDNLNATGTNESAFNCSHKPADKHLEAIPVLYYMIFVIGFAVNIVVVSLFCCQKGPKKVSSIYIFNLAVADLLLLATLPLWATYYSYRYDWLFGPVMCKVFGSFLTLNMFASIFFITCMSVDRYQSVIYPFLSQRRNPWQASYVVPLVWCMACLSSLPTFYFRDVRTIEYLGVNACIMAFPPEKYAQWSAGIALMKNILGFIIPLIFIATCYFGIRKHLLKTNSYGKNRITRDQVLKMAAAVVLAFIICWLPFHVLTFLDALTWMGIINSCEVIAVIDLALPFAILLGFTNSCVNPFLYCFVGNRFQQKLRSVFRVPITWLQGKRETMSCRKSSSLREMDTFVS
Assay type: tissue-based

IC50 | SMILES
8 µM | O=C(O)C1Cc2c(ncn2Cc2ccccc2)CN1C(=O)C1c2ccccc2-c2ccccc21 (stereo not given)
0.37 µM | COc1ccc(Cn2cnc3c2CC(CO)N(C(=O)C(c2ccccc2)c2ccccc2)C3)cc1C (stereo not given)
0.7 µM | O=C(O)[C@@H]1Cc2c(ncn2CCCc2ccccc2)CN1C(=O)C(c1ccccc1)c1ccccc1
0.14 µM | Cc1cc(C)cc(Cn2cnc3c2C[C@@H](C(=O)O)N(C(=O)C(c2ccccc2)c2ccccc2)C3)c1
1.4 µM | O=C(O)C1Cc2c(ncn2Cc2ccccc2)CN1C(=O)Cc1ccccc1 (stereo in doubt; 14)
11 µM | O=C(O)C1Cc2c(ncn2Cc2ccccc2)CN1C(=O)NCc1ccccc1 (stereo not given)
0.085 µM | COc1ccc(Cn2cnc3c2C[C@@H](C(=O)O)N(C(=O)C(c2ccccc2)C2CCCCC2)C3)cc1C (stereo not given in full)
0.61 µM | O=C(O)[C@@H]1Cc2c(ncn2Cc2ccc([N+](=O)[O-])cc2)CN1C(=O)C(c1ccccc1)c1ccccc1
2 µM | COc1ccc(C(C(=O)N2Cc3ncn(Cc4ccc(OC)c(C)c4)c3C[C@H]2C(=O)O)c2ccc(OC)cc2)cc1
1.1 µM | CN(C(=O)N1Cc2ncn(Cc3ccccc3)c2CC1C(=O)O)c1ccccc1 (stereo in doubt; 3a)
0.056 µM | Cc1cc(Cn2cnc3c2C[C@@H](C(=O)O)N(C(=O)C(c2ccccc2)c2ccccc2)C3)ccc1O
1.2 µM | O=C(O)[C@H]1Cc2c(ncn2Cc2ccccc2)CN1C(=O)C(c1ccccc1)c1ccccc1
0.34 µM | O.O=C(O)[C@@H]1Cc2c(ncn2CC2CCCCC2)CN1C(=O)C(c1ccccc1)c1ccccc1
2.3 µM | COc1ccc(Cn2cnc3c2C[C@@H](C(=O)O)N(C(=O)C(c2ccc(F)cc2)c2ccc(F)cc2)C3)cc1C
0.11 µM | O=C(O)[C@@H]1Cc2c(ncn2C(c2ccccc2)c2ccccc2)CN1C(=O)C(c1ccccc1)c1ccccc1
0.29 µM | Cc1cc(Cn2cnc3c2C[C@@H](C(=O)O)N(C(=O)C(c2ccccc2)c2ccccc2)C3)ccc1[N+](=O)[O-]

IC50 | SMILES
0.53 µM | COc1ccc(Cn2cnc3c2C[C@@H](C(=O)O)N(C(=O)Cc2ccccc2)C3)cc1C
6.1 µM | O=C(C(c1ccccc1)c1ccccc1)N1CCc2c(ncn2Cc2ccccc2)C1
0.05 µM | CCc1cc(Cn2cnc3c2C[C@@H](C(=O)O)N(C(=O)C(c2ccccc2)c2ccccc2)C3)ccc1OC
0.12 µM | O=C(O)[C@@H]1Cc2c(ncn2Cc2cccnc2)CN1C(=O)C(c1ccccc1)c1ccccc1
2.4 µM | O=C(C(=O)N1Cc2ncn(Cc3ccccc3)c2CC1C(=O)O)c1ccccc1 (stereo not given)
2 µM | COc1ccc(Cn2cnc3c2C[C@@H](C(=O)O)N(C(=O)CC2CCCCC2)C3)cc1C
9.8 µM | O=C(O)C1Cc2c(ncn2Cc2ccccc2)CN1C(=O)c1cccc2ccccc12 (stereo not given)
1.1 µM | CC(c1ccccc1)n1cnc2c1C[C@@H](C(=O)O)N(C(=O)C(c1ccccc1)c1ccccc1)C2 (stereo not given in full)
0.84 µM | COc1ccc(Cn2cnc3c2C[C@@H](C(=O)O)N(C(=O)C2(c4ccccc4)CCCC2)C3)cc1C
5.2 µM | O=C(Cc1ccccc1)N1Cc2ncn(Cc3ccccc3)c2CC1CO (stereo not given)
0.51 µM | COc1ccc(Cn2cnc3c2C[C@@H](C(=O)O)N(C(=O)C(c2ccc(C)cc2)c2ccc(C)cc2)C3)cc1C
0.15 µM | Nc1ccc(Cn2cnc3c2C[C@@H](C(=O)O)N(C(=O)C(c2ccccc2)c2ccccc2)C3)cc1
21 µM | CC(C)NC(=O)N1Cc2ncn(Cc3ccccc3)c2CC1C(=O)O (stereo not given)
0.098 µM | COc1ccc(Cn2cnc3c2C[C@@H](C(=O)O)N(C(=O)C(c2ccccc2)c2ccccc2)C3)cc1OC
0.085 µM | CN(C)c1ccc(Cn2cnc3c2C[C@@H](C(=O)O)N(C(=O)C(c2ccccc2)c2ccccc2)C3)cc1

SMILES | IC50
O=C(O)C1Cc2c(ncn2Cc2ccccc2)CN1C(=O)C(c1ccc([N+](=O)[O-])cc1)c1ccc([N+](=O)[O-])cc1 (stereo not given) | 13 µM

The molecules below were run against T1, Angiotensin II receptor (assay: Binding affinity for rat brain Angiotensin II receptor).

IC50 | SMILES
19 µM | O=C(O)C1Cc2c(ncn2Cc2ccccc2)CN1C(=O)C1c2ccccc2-c2ccccc21 (stereo not given)
0.13 µM | COc1ccc(Cn2cnc3c2CC(CO)N(C(=O)C(c2ccccc2)c2ccccc2)C3)cc1C (stereo not given)
0.4 µM | O=C(O)[C@@H]1Cc2c(ncn2CCCc2ccccc2)CN1C(=O)C(c1ccccc1)c1ccccc1
